Measured values taken from US9131690B2, “Macrocyclic picolinamides as fungicides” (Dow AgroSciences LLC, priority 2012, dated 2015).
Where two headings read alike, the source gives them in different places.

How the values were obtained:
[1] = system: Mycosphaerella graminicola; Anamorph: Septoria tritici; test: Fungicidal activity: Leaf Blotch of Wheat (SEPTTR), wheat plants variety Yuma; type: in vivo; design: key to SEPTTR 3DC Disease Control: A: 50-100; B: More than 0-Less than 50; C: Not Tested; D: No activity noticed in this bioassay; details: for pest or weed control at 100 ppm: Zymoseptoria tritici
Method: Evaluation of Fungicidal Activity: Leaf Blotch of Wheat (Mycosphaerella graminicola; Anamorph: Septoria tritici; Bayer Code […]) Wheat plants (variety Yuma) were grown from seed in a greenhouse in 50% mineral soil/50% soil-less Metro mix until the first leaf was fully emerged, with 7-10 seedlings per pot. These plants were inoculated with an aqueous spore suspension of Septoria tritici either prior to or after fungicide treatments. After inoculation the plants were kept in 100% relative humidity (one day in a dark dew chamber followed by two to three days in a lighted dew chamber) to permit spores to germinate and infect the leaf. The plants were then transferred to a greenhouse at 20° C. for disease to develop.

[2] = system: Puccinia triticina. Synonym: Puccinia recondite f. sp. tritici; test: Fungicidal activity: Wheat Brown Rust (PUCCRT), wheat plants variety Yuma; type: in vivo; design: key to PUCCRT 3DC Disease Control: A: 50-100; B: More than 0-Less than 50; C: Not Tested; D: No activity noticed in this bioassay; details: for pest or weed control at 100 ppm: Puccinia triticina; for PUCCRT 3DC Disease Control: 100 ppm
Method: Evaluation of Fungicidal Activity: Wheat Brown Rust (Puccinia triticina. Synonym: Puccinia recondite f. sp. tritici; Bayer Code PUCCRT) Wheat plants (variety Yuma) were grown from seed in a greenhouse in 50% mineral soil/50% soil-less Metro mix until the first leaf was fully emerged, with 7-10 seedlings per pot. These plants were inoculated with an aqueous spore suspension of Puccinia recondite f. sp. tritici either prior to or after fungicide treatments. After inoculation the plants were kept in 100% relative humidity overnight to permit spores to germinate and infect the leaf. The plants were then transferred to a greenhouse set at 24 C for disease to develop.

[3] = 24 h, 1 Day Protectant, read-out: SEPTTR 1DP Disease Control
[4] = 24 h, 1 Day Protectant, read-out: PUCCRT 1DP Disease Control
[5] = 72 h, 3 Day Curative, read-out: PUCCRT 3DC Disease Control
[6] = 72 h, 3 Day Curative, read-out: SEPTTR 3DC Disease Control

Row | SMILES | melting point [°C] | SEPTTR 3DC Disease Control ([1]; 100 ppm, 3 Day Curative) | pest or weed control at 100 ppm [1, 3] [%] | pest or weed control at 100 ppm [2, 4] [%] | pest or weed control at 100 ppm [2, 5] [%] | pest or weed control at 100 ppm [1, 6] [%] | PUCCRT 3DC Disease Control ([2]; 3 Day Curative)
1 | COc1ccnc(C(=O)N[C@H]2COC(=O)[C@H](C)[C@@H](OC(=O)C(C)C)[C@H](C)OC2=O)c1O [Compound 46, (3S,6S,7R,8R)-3-(3-hydroxy-4-methoxypicolinamido)-6,8-dimethyl-4,9-dioxo-1,5-dioxonan-7-yl isobutyrate] | 198 to 200 | D | 50 to 100 | 50 to 100 | 0 to 50 |  | 
2 | COc1ccnc(C(=O)N[C@H]2COC(=O)[C@H](CC(=O)OC(C)(C)C)[C@@H](OC(=O)C(C)C)[C@H](C)OC2=O)c1O [Compound 47, (3S,6S,7R,8R)-8-(2-tert-butoxy-2-oxoethyl)-3-(3-hydroxy-4-methoxypicolinamido)-6-methyl-4,9-dioxo-1,5-dioxonan-7-yl isobutyrate] | 192 to 194 |  | 50 to 100 | 50 to 100 | 50 to 100 | 50 to 100 | 
3 | COc1ccnc(C(=O)N[C@H]2COC(=O)[C@H](CC(=O)Oc3ccccc3)[C@@H](OC(=O)C(C)C)[C@H](C)OC2=O)c1O [Compound 48] | 176 to 178 |  | 50 to 100 | 50 to 100 |  | 0 to 50 | D
4 | COc1ccnc(C(=O)N[C@H]2COC(=O)[C@H](CC(=O)OC(C)C)[C@@H](OC(=O)C(C)C)[C@H](C)OC2=O)c1O [Compound 49] | 169 to 170 |  | 50 to 100 | 50 to 100 | 50 to 100 | 50 to 100 | 
5 | COC(=O)C[C@H]1C(=O)OC[C@H](NC(=O)c2nccc(OC)c2O)C(=O)O[C@@H](C)[C@@H]1OC(=O)C(C)C [Compound 50] | 138 to 140 |  | 50 to 100 | 50 to 100 | 50 to 100 | 50 to 100 | 
6 | COc1ccnc(C(=O)N[C@H]2COC(=O)[C@H](CCOC=O)[C@@H](OC(=O)C(C)C)[C@H](C)OC2=O)c1O [Compound 51, (3S,6S,7R,8R)-8-(2-(formyloxy)ethyl)-3-(3-hydroxy-4-methoxypicolinamido)-6-methyl-4,9-dioxo-1,5-dioxonan-7-yl isobutyrate] | 103 to 105 |  | 0 to 50 | 50 to 100 |  | 0 to 50 | D
7 | COc1ccnc(C(=O)N[C@H]2COC(=O)[C@H](CC(F)F)[C@@H](OC(=O)C(C)C)[C@H](C)OC2=O)c1O [Compound 52, (3S,6S,7R,8R)-8-(2,2-difluoroethyl)-3-(3-hydroxy-4-methoxypicolinamido)-6-methyl-4,9-dioxo-1,5-dioxonan-7-yl isobutyrate] | 195 to 196 |  | 50 to 100 | 50 to 100 | 0 to 50 | 0 to 50 | 
8 | CC[C@H]1C(=O)OC[C@H](NC(=O)c2nccc(OC)c2O)C(=O)O[C@@H](C)[C@@H]1OC(=O)C(C)C [Compound 53, (3S,6S,7R,8R)-8-ethyl-3-(3-hydroxy-4-methoxypicolinamido)-6-methyl-4,9-dioxo-1,5-dioxonan-7-yl isobutyrate] | 193 to 195 |  | 50 to 100 | 50 to 100 |  | 0 to 50 | D
9 | COc1ccnc(C(=O)N[C@H]2COC(=O)[C@H](CCn3cc(-c4cccc(Cl)c4)nn3)[C@@H](OC(=O)C(C)C)[C@H](C)OC2=O)c1O [Compound 54, (3S,6S,7R,8R)-8-(2-(4-(3-chlorophenyl)-1H-1,2,3-triazol-1-yl)ethyl)-3-(3-hydroxy-4 methoxypicolinamido)-6-methyl-4,9-dioxo-1,5-dioxonan-7-yl isobutyrate] | 222 to 224 |  | 50 to 100 | 50 to 100 |  | 0 to 50 | D
10 | COc1ccnc(C(=O)N[C@H]2COC(=O)[C@H](CCn3cc(-c4ccccc4)nn3)[C@@H](OC(=O)C(C)C)[C@H](C)OC2=O)c1O [Compound 55] | 222 to 224 |  | 50 to 100 | 50 to 100 | 0 to 50 | 0 to 50 | 
11 | COc1ccnc(C(=O)N[C@H]2COC(=O)[C@H](CCOS(C)(=O)=O)[C@@H](OC(=O)C(C)C)[C@H](C)OC2=O)c1O [Compound 56, (3S,6S,7R,8R)-3-(3-hydroxy-4-methoxypicolinamido)-6-methyl-8-(2(methylsulfonyloxy)ethyl)-4,9-dioxo-1,5-dioxonan-7-yl isobutyrate] | 153 to 155 |  | 0 to 50 | 50 to 100 | 0 to 50 | 0 to 50 | 
12 | COc1ccnc(C(=O)N[C@H]2COC(=O)[C@H](CCc3ccccc3)[C@@H](OC(=O)C(C)C)[C@H](C)OC2=O)c1O [Compound 57, (3S,6S,7R,8R)-3-(3-hydroxy-4-methoxypicolinamido)-6-methyl-4,9-dioxo-8-phenethyl-1,5-dioxonan-7-yl isobutyrate] | 183 to 184 |  | 50 to 100 | 50 to 100 | 50 to 100 | 0 to 50 | 
13 | COc1ccnc(C(=O)N[C@H]2COC(=O)[C@H](CCc3ccc(F)cc3)[C@@H](OC(=O)C(C)C)[C@H](C)OC2=O)c1O [Compound 58] | 142 to 144 |  | 50 to 100 | 50 to 100 | 50 to 100 | 0 to 50 | 
14 | COc1ccnc(C(=O)N[C@H]2COC(=O)[C@H](CCc3cccnc3)[C@@H](OC(=O)C(C)C)[C@H](C)OC2=O)c1O [Compound 59] | 169 to 170 |  | 0 to 50 | 50 to 100 | 0 to 50 | 0 to 50 | 
15 | COc1ccnc(C(=O)N[C@H]2COC(=O)[C@H](CCOCc3ccccc3)[C@@H](OC(=O)C(C)C)[C@H](C)OC2=O)c1O [Compound 60, (3S,6S,7R,8R)-8-(2-(benzyloxy)ethyl)-3-(3-hydroxy-4-methoxypicolinamido)-6-methyl-4,9-dioxo-1,5-dioxonan-7-yl isobutyrate] | 139 to 140 |  | 50 to 100 | 50 to 100 | 50 to 100 | 0 to 50 | 
16 | COc1ccnc(C(=O)N[C@H]2COC(=O)[C@H](CC3CCCCC3)[C@@H](OC(=O)C(C)C)[C@H](C)OC2=O)c1O [Compound 61, (3S,6S,7R,8R)-8-(cyclohexylmethyl)-3-(3-hydroxy-4-methoxypicolinamido)-6-methyl-4,9-dioxo-1,5-dioxonan-7-yl isobutyrate] | 188 to 189 |  | 50 to 100 | 50 to 100 | 0 to 50 | 50 to 100 | 
17 | CCCCCCC[C@H]1C(=O)OC[C@H](NC(=O)c2nccc(OC)c2O)C(=O)O[C@@H](C)[C@@H]1OC(=O)C(C)C [Compound 63, (3S,6S,7R,8R)-8-heptyl-3-(3-hydroxy-4-methoxypicolinamido)-6-methyl-4,9-dioxo-1,5-dioxonan-7-yl isobutyrate] | 131 to 134 |  | 50 to 100 | 50 to 100 |  | 0 to 50 | D
18 | CCC[C@H]1C(=O)OC[C@H](NC(=O)c2nccc(OC)c2O)C(=O)O[C@@H](C)[C@@H]1OC(=O)C(C)C [Compound 64] | 165 to 168 |  | 50 to 100 | 50 to 100 | 0 to 50 | 50 to 100 | 
19 | COc1ccnc(C(=O)N[C@H]2COC(=O)[C@H](CSc3ccccn3)[C@@H](OC(=O)C(C)C)[C@H](C)OC2=O)c1O [Compound 65, (3S,6S,7R,8R)-3-(3-hydroxy-4-methoxypicolinamido)-6-methyl-4,9-dioxo-8-((pyridin-2-ylthio)methyl)-1,5-dioxonan-7-yl isobutyrate] | 148 to 150 |  | 50 to 100 | 50 to 100 | 0 to 50 | 0 to 50 | 
